# What was measured:
# Format in all cases: in vivo
# [1] = system: mosquitoes; test: Mosquito trap catch, Mosquito Magnet Pro units, Florida; conditions: release rates approx. 60 mg/day and 500 mg/day; 10-18 test days
# Protocol: In tests performed in Florida using Mosquito Magnet Pro units, (R)-(+)-1-octyn-3-ol was compared with racemic 1-octyn-3-ol and (S)-(-)-1-octyn-3-ol at release rates of approximately 60 mg/day and 500 mg/day. The lures were rotated among the traps and compared to the same traps with no lure, all relative to a control trap. The (S)-(-)-1-octyn-3-ol caught an average of 39% more mosquitoes relative to the control than the traps when no lure was used (18 test days), the racemic 1-octyn-3-ol caught an average of 240% more mosquitoes than did no lure (10 test days), and the (R)-(+)-1-octyn-3-ol caught an average of 334% more mosquitoes than the traps with no lure (16 test days).
# [2] = system: mosquitoes; test: Mosquito trap catch with wax lure and CO2, model 1012 traps, Connecticut; conditions: wax lure, approx. 0.17 mg/hr release, CO2 approx. 140 ml/minute, average of four three-day cycles
# Protocol: The following tests were conducted in Connecticut in September 2004. Mosquito traps model 1012 manufactured by John W. Hock Company in Gainesville, Florida were used in these experiments. The traps use a stream of CO2 directed in the vicinity of a collection bag, with a fan used to blow mosquitoes into the bag. The light supplied with the trap was turned off. The traps were spaced 65-70 feet apart at the edge of a wetland in Danbury, Conn., at least 25 feet from any buildings. The (R) and (S)-1-octyn-3-ol was incorporated into a wax lure of the type manufactured by BioSensory, Inc. and placed near a stream of CO2 which was being released at a rate of approximately 140 ml/minute. The traps were operated from approximately 4:00 PM until 9:00 AM the next day. Daytime temperatures were 70-75° F. during the trials. Average weight loss from the wax lures during the test was approximately 4 mg/day, or 0.17 mg/hr. Three traps were used, with either (R)-1-Octyn-3-ol, (S)-1-Octyn-3-ol, or no treatment, rotated among the traps over a three-day cycle. Four complete cycles were performed and the results for each treatment were averaged.
# The traps with no attractant were considered as the baseline catch of mosquitoes and the results of the catches with the isomers were compared to this baseline value.
# [3] = system: mosquitoes; test: Mosquito trap catch, Mosquito Magnet Liberty traps, Danbury, Conn.; conditions: porous frit, 1 gram, releasing approx. 1 mg/h, rotated twice among four traps over eight days
# Protocol: Tests were conducted with the Mosquito Magnet Liberty model manufactured by American Biophysics Corp. The traps were spaced 65-70 feet apart at the edge of a wetland in Danbury, Conn., at least 25 feet from any buildings. 1 gram of test chemical was added to a clean porous frit of the type normally used in the trap, releasing approximately 1 mg/h. (R)-(+)-1-octyn-3-ol, (S)-(-)-1-octyn-3-ol, (R)-(-)-1-octen-3-ol, and racemic 1-octen-3-ol were rotated twice among four traps over eight days, and the results for each attractant were compared.
SMILES,"average more mosquitoes caught than the traps with no lure, relative to a control trap [1] [%]",more mosquitoes captured than the baseline (traps with no attractant) [2] [%],more mosquitoes caught than the trap with the 50:50 racemic mixture of 1-octen-3-ol [3] [%],less mosquitoes caught than the trap with the 50:50 racemic mixture of 1-octen-3-ol [3] [%]
"C#CC(O)CCCCC (racemic) [racemic 1-octyn-3-ol, 1-octyn-3-ol]",240,,,
C#C[C@H](O)CCCCC [(R)-(+)-1-octyn-3-ol],334,120,34,
C#C[C@@H](O)CCCCC [(S)-(-)-1-octyn-3-ol],39,65,,23
